From PMC9747239, “State-selective modulation of heterotrimeric Gαs signaling with macrocyclic peptides” (Cell, 2022)
Where a SMILES comes first, the peptide text is derived from it. Bridges are numbered along the chain shown (N, C = ends). [ ]: non-standard residue; d: D form.

Columns and labels:
[1] = Chemical stability assay in DMEM with 10% FBS; assay type: in vitro ADME; conditions: bovine, DMEM with 10% FBS (fetal bovine serum), 37 °C, values represent 95% confidence intervals, read-out: Half-life (hour), chemical stability in DMEM with 10% FBS
Procedure: (§1) These assays were conducted by Pharmaron Beijing CO., Ltd. Cyclic peptides working solutions were prepared at 10 μM in DMEM with 10% FBS (Avantor, Cat# 76,294–180) or human plasma (Pooled, Male & Female, BioIVT, Cat# HMN666664). The assays were performed in duplicate. Vials were incubated at 37 °C at 60 rpm in a water bath and taken at designated time points including 0, 480, 1080 and 1440 min. For each time point, the initiation of the reaction was staggered so all the time points were terminated with cold acetonitrile containing internal standards (IS, 100 nM alprazolam, 200 nM labetalol, 200 nM Imipramine and 2 μM ketoplofen) at the same time. Samples were vortexed then centrifuged at 4°C to remove proteins. The supernatants from centrifugation were diluted by ultra-pure H2O and used for LC-MS/MS analysis. All calculations were carried out using GraphPad Prism. Remaining percentages of parent compounds at each time point were estimated by determining the peak area ratios from extractedion chromatograms.

Gαs/GDP and Gβγ(C68S) = target: T1, Gαs/GDP and Gβγ(C68S) (Homo sapiens, UniProt P63092); experiment: FRET based Gαs/Gβγ interaction assay; assay type: binding; conditions: FRET, Gαs/GDP 4 nM, Gβ1/γ2(C68S) 2 nM; read-out: IC50, inhibition of Gαs/Gβγ interaction
T1 construct: hexahistidine (N, cleaved yes); made in house; host or cells: E. coli BL21(DE3) (Gαs); Sf9 insect cells (Gβ1γ2)
T1 sequence (P63092 with tags, fused parts or gaps isoform P63092-2): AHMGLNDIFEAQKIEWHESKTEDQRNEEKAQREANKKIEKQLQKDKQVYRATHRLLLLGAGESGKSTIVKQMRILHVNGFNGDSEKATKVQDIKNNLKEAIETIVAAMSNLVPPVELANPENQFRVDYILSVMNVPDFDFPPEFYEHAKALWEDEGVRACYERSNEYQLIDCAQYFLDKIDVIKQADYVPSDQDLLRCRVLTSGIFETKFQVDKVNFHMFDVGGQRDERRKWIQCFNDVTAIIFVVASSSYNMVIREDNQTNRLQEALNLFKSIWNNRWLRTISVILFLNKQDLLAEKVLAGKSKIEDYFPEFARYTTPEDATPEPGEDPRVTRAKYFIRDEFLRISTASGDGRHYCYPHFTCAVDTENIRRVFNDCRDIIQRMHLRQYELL

Gαs/GDP = target: T2, Gαs/GDP (Homo sapiens, UniProt P63092); experiment: Bio-layer interferometry (BLI), GDP-bound Gαs; conditions: read-out: KD, binding to Gαs/GDP
T2 construct: hexahistidine (N, cleaved yes); made in house; host or cells: E. coli BL21(DE3)
Procedure: (§2) BLI experiments were performed using an OctetRED384 instrument from ForteBio. All experiments were performed at 25°C using BLI buffer (10 mM HEPES pH 7.4, 150 mM NaCl, 1mM MgCl2, 0.05% Tween 20, 0.1% DMSO, 0.2 mM GNP or GDP). Cyclic peptides or Gα proteins were diluted to a series of concentrations (Final concentrations were indicated in Figures) in BLI buffer plus 10 μM Biotin. Assays were conducted in Greiner 384well, black, flat bottom polypropylene plates containing the protein solutions, BLI buffer plus 10 μM Biotin for dissociation, and serial dilutions of cyclic peptides to be tested.
(§3) Biotinylated proteins or cyclic peptides were immobilized on Streptavidin biosensors by dipping sensors into plate wells containing protein solutions at a concentration of 50–150 nM. Protein loading is around 2–3 nm. Cyclic peptide loading is around 0.2–0.3 nm. Sensors loaded with proteins or cyclic peptides were moved and dipped into wells with BLI buffer plus 10 μM Biotin to block unlabeled Streptavidin. […]
(§4) Raw kinetic data collected were processed with the Data Analysis software provided by the manufacturer using single reference subtraction in which buffer-only reference was subtracted (For GN13 analysis). […] The resulting data were analyzed based on a 1:1 binding model from which kon and koff values were obtained and then Kd values were calculated.

long isoform of Gαs = target: T3, long isoform of Gαs (Homo sapiens, UniProt P63092); experiment: Steady-state GTPase assay, Gαs long isoform; assay type: biochemical; conditions: read-out: IC50, inhibition of steady-state GTPase activity of long isoform of Gαs
T3 construct: made in house; host or cells: E. coli BL21(DE3)
T3 sequence (P63092 whole entry, canonical isoform): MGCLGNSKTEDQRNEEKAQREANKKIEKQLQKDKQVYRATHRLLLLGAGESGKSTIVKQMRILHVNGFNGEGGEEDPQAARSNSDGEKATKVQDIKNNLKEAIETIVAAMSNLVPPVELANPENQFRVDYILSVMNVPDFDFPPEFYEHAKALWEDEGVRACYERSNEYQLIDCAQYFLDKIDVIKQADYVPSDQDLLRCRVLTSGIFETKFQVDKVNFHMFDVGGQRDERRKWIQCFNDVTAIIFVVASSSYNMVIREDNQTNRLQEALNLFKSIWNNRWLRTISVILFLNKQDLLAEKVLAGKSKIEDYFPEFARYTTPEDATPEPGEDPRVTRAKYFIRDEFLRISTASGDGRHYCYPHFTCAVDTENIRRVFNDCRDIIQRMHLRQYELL
Procedure: (§5) WT Gαs (both short and long) was diluted to a 6 μM stock (4X) in GTPase assay buffer (20 mM HEPES 7.5, 150 mM NaCl, 1 mM MgCl2). The protein was 1:1 (v/v) diluted with 4X cyclic peptide stock (0, 1.56, 3.12, 6.25, 12.5, 25, 50, 100 μM) in GTPase assay buffer, and incubated at 37°C for an hour. The samples were then 1:1 (v/v) diluted with reaction buffer (20 mM HEPES 7.5, 150 mM NaCl, 1 mM MgCl2, and 1 mM GTP) and incubated at 37°C. After 30, 50, 70, 90 min, 50 μL of the sample was removed to measure the inorganic phosphate (Pi) concentration by PiColorLock Phosphate Detection kit. A standard curve was made using the 0.1 mM Pi stock in the kit. Final [cyclic peptide]: 0, 0.39, 0.78, 1.56, 3.12, 6.25, 12.5, 25 μM; Final [Gαs]: 1.5 μM; Final [GTP]: 500 μM.

Gαs = target: T4, Gαs (Homo sapiens, UniProt P63092); experiment: Steady-state GTPase assay, Gαs short isoform; assay type: biochemical; conditions: read-out: IC50, inhibition of Gαs steady-state GTPase activity
T4 construct: vector His tag with thrombin/Drice site (removed); made in house; host or cells: E. coli BL21(DE3)
T4 sequence (P63092 with tags, fused parts or gaps isoform P63092-2): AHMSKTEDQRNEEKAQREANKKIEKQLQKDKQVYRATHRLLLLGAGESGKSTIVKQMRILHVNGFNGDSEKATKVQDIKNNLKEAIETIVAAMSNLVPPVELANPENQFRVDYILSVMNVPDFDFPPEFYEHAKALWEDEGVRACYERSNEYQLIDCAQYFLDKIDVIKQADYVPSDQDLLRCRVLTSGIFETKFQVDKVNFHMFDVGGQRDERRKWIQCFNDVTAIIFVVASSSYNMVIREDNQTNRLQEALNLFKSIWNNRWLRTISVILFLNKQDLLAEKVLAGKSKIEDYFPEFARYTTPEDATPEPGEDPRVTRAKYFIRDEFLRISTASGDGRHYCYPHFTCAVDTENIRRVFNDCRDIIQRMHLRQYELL
Procedure: as §5

Plasma stability assay = assay type: in vitro ADME; conditions: both sexes, pooled human plasma, 37 °C, values represent 95% confidence intervals, read-out: Half-life (hour), plasma stability
Procedure: as §1

Gαs (short isoform) = target: T5, Gαs (short isoform) (Homo sapiens, UniProt P63092); experiment: Reconstituted adenylyl cyclase (AC) activity assay, Gαs/GNP-mediated AC activation; assay type: biochemical; conditions: Gαs/GNP 125 nM, read-out: IC50, inhibition of Gαs-mediated AC activation
T5 construct: vector His tag with thrombin/Drice site (removed); made in house; host or cells: E. coli BL21(DE3)
Procedure: Cyclic peptides (4 mM stock in DMSO) were diluted to 4X stocks with a series of concentrations in reaction buffer (1x PBS 7.4, 0.1% BSA). Gαs at a concentration of 8.5 mg/mL (about 190 μM) in 20 mM HEPES 8.0, 150 mM NaCl, 5 mM MgCl2, 1 mM EDTA-Na 8.0 was diluted to 0.5 μM in dilution buffer (1x PBS 7.4, 0.1% BSA, 1 mM EDTA-Na 8.0, 2 mM DTT, 0.1mM MgCl2) plus 1mM GNP (For the GDP-bound R201 mutants, GDP was used in the nucleotide exchange experiments). After incubation at room temperature for 1 h to allow nucleotide exchange, 2.5 μL of 4x Gαs dilution was mixed with 1 μL MgCl2 stock (20 mM MgCl2, 1x PBS 7.4, 0.1% BSA) in an OptiPlate-384, White Opaque 384-well Microplate to lock Gαs in GNP-bound state. 2 μL of 5x AC stock (2 μM VC1, 2 nM IIC2, 150 μM FSK, 1x PBS 7.4, 0.1% BSA) was added, followed by addition of 2.5 μL 4X cyclic peptides stock. […] The cAMP concentrations were measured by the LANCE Ultra cAMP kit. […]
cAMP concentrations measurement by the LANCE Ultra cAMP kit: A cAMP standard curve was generated in the same plate using the 50 μM cAMP standard in the kit. […] 10 μL of each diluted sample was mixed with 5 μL of 4X Eu-cAMP tracer and 5 μL of 4X ULight-anti-cAMP in a white, opaque Optiplate-384 microplate, incubated for 1 h at room temperature, and the time-resolved fluorescence resonance energy transfer (TR-FRET) signals were read on a Spark 20M plate reader. […]

Gαs/GNP = target: T6, Gαs/GNP (Homo sapiens, UniProt P63092); experiment: Bio-layer interferometry (BLI), GNP-bound Gαs; conditions: immobilized Gαs/GNP, read-out: KD, binding to Gαs/GNP
T6 construct: hexahistidine (N, cleaved yes); made in house; host or cells: E. coli BL21(DE3)
Procedure: as §2, §3, §4

Row | half-life at 10 μM [1] [h] | IC50 (Gαs/GDP and Gβγ(C68S)) [nM] | Kd (Gαs/GDP) [nM] | IC50 (long isoform of Gαs) [nM] | IC50 (Gαs) [nM] | half-life at 10 μM (Plasma stability assay) [h] | IC50 (Gαs (short isoform)) [nM] | Kd (Gαs/GNP) [nM] | SMILES
1 | > 142 | 18.4 ± 2 | 31.4 ± 0.7 | 1320 ± 170 | 1150 ± 160 | 16.4 to 27.1 | – | – | CC[C@H](C)[C@@H]1NC(=O)[C@H](CC(C)C)NC(=O)[C@@H](Cc2ccc(O)cc2)NC(=O)CSC[C@@H](C(=O)NCC(N)=O)NC(=O)[C@@H]2CCCN2C(=O)[C@H](CC(C)C)NC(=O)[C@H](CC(N)=O)NC(=O)[C@H](Cc2ccccc2)NC(=O)[C@H](C)NC(=O)[C@H](Cc2c[nH]c3ccccc23)NC(=O)[C@H](CCC(N)=O)NC(=O)[C@H](CCCNC(=N)N)NC(=O)[C@H](Cc2ccccc2)NC(=O)[C@H]([C@@H](C)O)NC1=O [GD20] ({CH2CO}-[dY]LITFRQWAFNLPCG-NH2; thioether N-14)
2 | > 76 | – | – | – | – | > 82 | 4150 ± 1130 | 190 ± 20 | CC[C@H](C)[C@@H]1NC(=O)[C@H](C)NC(=O)[C@H](Cc2ccc(O)cc2)NC(=O)[C@H](C(C)C)NC(=O)[C@H](CO)NC(=O)[C@H](CCC(=O)O)NC(=O)[C@H](Cc2ccccc2)NC(=O)[C@@H](Cc2ccc(O)cc2)NC(=O)CSC[C@@H](C(=O)NCC(N)=O)NC(=O)[C@H](CC(C)C)NC(=O)[C@H]([C@@H](C)O)NC(=O)CNC(=O)[C@H](Cc2c[nH]c3ccccc23)NC1=O [GN13] ({CH2CO}-[dY]FESVYAIWGTLCG-NH2; thioether N-13)
